Results reported in publication PMC5291411, “Cytotoxic conjugates of betulinic acid and substituted triazoles prepared by Huisgen Cycloaddition from 30-azidoderivatives” (PLoS ONE, 2017).

Key:
CCRF-CEM = assay: Cytotoxic MTS assay, CCRF-CEM; type: cell-based; settings: Homo sapiens, 72 h, T-lymphoblastic leukemia
Source text: (§1) Cytotoxic activity of all synthesized compounds was investigated in vitro against eight human cancer cell lines and two non-tumor fibroblasts using the standard MTS test (Table 1). The cancer cell lines were derived from T-lymphoblastic leukemia CCRF-CEM, leukemia K562 and their multiresistant counterparts expressing P-glycoprotein, MRP1 and LRP proteins (CEM-DNR, K562-TAX), solid tumors including lung (A549) and colon (HCT116, HCT116p53-/-) carcinomas, osteosarcoma cell line (U2OS), and for comparison, tests were performed on two human non-cancer fibroblast cell lines (BJ, MRC-5).
(§2) Biological assays were performed in concordance with our previous publications [[29], [58]; [60]; [61]]. All cells (if not indicated otherwise) were purchased from the American Tissue Culture Collection (ATCC). The CCRF-CEM line is derived from T lymphoblastic leukemia, evincing high chemosenzitivity, K562 represent cells from an acute myeloid leukemia patient sample with bcr-abl translocation, U2OS line is derived from osteosarcoma, HCT116 is colorectal tumor cell line and its p53 gene knock-down counterpart (HCT116p53-/-, Horizon Discovery Ltd, UK) is a model of human cancers with p53 mutation frequently associated with poor prognosis, A549 line is lung adenocarcinoma. The daunorubicin resistant subline of CCRF-CEM cells (CEM-DNR bulk) and paclitaxel resistant subline K562-TAX were selected in our laboratory by the cultivation of maternal cell lines in increasing concentrations of daunorubicine or paclitaxel, respectively. The CEM-DNR bulk cells overexpress MRP-1 and P-glycoprotein protein, while K562-TAX cells overexpress P-glycoprotein only. Both proteins belong to the family of ABC transporters and are involved in the primary and/or acquired multidrug resistance phenomenon. MRC-5 and BJ cell lines were used as a non-tumor control and represent human fibroblasts. The cells were maintained in nunc/corning 80 cm^2 plastic tissue culture flasks and cultured in cell culture medium according to ATCC or Horizon recommendations (DMEM/RPMI 1640 with 5 g/L glucose, 2 mM glutamine, 100 U/mL penicillin, […] streptomycin, 10% fetal calf serum, and NaHCO3).
(§3) MTS assay was performed at Institute of Molecular and Translational Medicine by robotic platform (HighResBiosolutions). Cell suspensions were prepared and diluted according to the particular cell type and the expected target cell density (25000–35000 cells/mL based on cell growth characteristics). Cells were added by automatic pipetor (30 μL) into 384 well microtiter plates. All tested compounds were dissolved in 100% DMSO and four-fold dilutions of the intended test concentration were added in 0.15 μL aliquots at time zero to the microtiter plate wells by the echoacustic non-contact liquid handler Echo550 (Labcyte). The experiments were performed in technical duplicates and three biological replicates at least. The cells were incubated with the tested compounds for 72 h at 37°C, in a 5% CO2 atmosphere at 100% humidity. At the end of the incubation period, the cells were assayed by using the MTS test. Aliquots (5 μL) of the MTS stock solution were pipetted into each well and incubated for additional 1–4 h. After this incubation period, the optical density (OD) was measured at 490 nm with an Envision reader (Perkin Elmer). Tumor cell survival (TCS) was calculated by using the following equation: TCS = (ODdrug-exposed well/mean ODcontrol wells) × 100%. The IC50 value, the drug concentration that is lethal to 50% of the tumor cells, was calculated from the appropriate dose-response curves in Dotmatics software.

CEM-DNR = assay: Cytotoxic MTS assay, CEM-DNR; type: cell-based; settings: Homo sapiens, 72 h, daunorubicin resistant subline of CCRF-CEM
Source text: as §1, §2, §3

K562 = assay: Cytotoxic MTS assay, K562; type: cell-based; settings: Homo sapiens, 72 h, leukemia
Source text: as §1, §2, §3

K562-TAX = assay: Cytotoxic MTS assay, K562-TAX; type: cell-based; settings: Homo sapiens, 72 h, paclitaxel resistant subline of K562
Source text: as §1, §2, §3

A549 = assay: Cytotoxic MTS assay, A549; type: cell-based; settings: Homo sapiens, 72 h, lung adenocarcinoma
Source text: as §1, §2, §3

HCT116 = assay: Cytotoxic MTS assay, HCT116; type: cell-based; settings: Homo sapiens, HCT-116, 72 h, colorectal tumor
Source text: as §1, §2, §3

HCT116p53-/- = assay: Cytotoxic MTS assay, HCT116p53-/-; type: cell-based; settings: Homo sapiens, 72 h, p53 knock-down colorectal tumor
Source text: as §1, §2, §3

U2OS = assay: Cytotoxic MTS assay, U2OS; type: cell-based; settings: Homo sapiens, 72 h, osteosarcoma
Source text: as §1, §2, §3

BJ = assay: Cytotoxic MTS assay, BJ fibroblasts; type: cell-based; settings: Homo sapiens, 72 h, non-tumor fibroblasts
Source text: as §1, §2, §3

MRC-5 = assay: Cytotoxic MTS assay, MRC-5 fibroblasts; type: cell-based; settings: Homo sapiens, MRC5, 72 h, non-tumor fibroblasts
Source text: as §1, §2, §3

CCRF-CEM cells [1] = assay: Cell cycle and apoptosis analysis (propidium iodide flow cytometry); type: cell-based, human
Procedure: (§4) Together with the treated cells, control sample containing vehicle was harvested at the same time point after 24 h. After another 24 hours, cells were then washed with cold PBS and fixed in 70% ethanol added dropwise and stored overnight at -20°C. Afterwards, cells were washed in hypotonic citrate buffer, treated with RNAse (50 μg/mL) and stained with propidium iodide. Flow cytometer using a 488 nm single beam laser (Becton Dickinson) was used for measurement. Cell cycle was analyzed in the program ModFitLT (Verity), and apoptosis was measured in logarithmic model expressing percentage of the particles with propidium content lower than cells in G0/G1 phase (<G1) of the cell cycle. Half of the sample was used for pH3^Ser10 antibody (Sigma) labeling and subsequent flow cytometry analysis of mitotic cells.

CCRF-CEM cells [2] = assay: pH3Ser10 antibody labeling, flow cytometry of mitotic cells; type: cell-based, human
Procedure: as §4

CCRF-CEM cells [3] = assay: BrDU incorporation analysis (DNA synthesis); type: cell-based, human; design: DNA synthesis: unit not given here
Procedure: as §4
For this analysis, the same procedure of cultivation as previously was used. Before harvesting, 10 μM 5-bromo-2-deoxyuridine (BrDU), was added to the cells for puls-labeling for 30 min. Cells were fixed with ice-cold 70% ethanol and stored overnight. Before the analysis, cellswere washed with PBS, and resuspended in 2 M HCl for 30 min at room temperature to denature their DNA. Following neutralization with 0.1 M Na2B4O7 (Borax), cells were washed with PBS containing 0.5% Tween-20 and 1% BSA. Staining with primary anti-BrDU antibody (Exbio) for 30 min at room temperature in the dark followed. Cells were than washed with PBS and stained with secondary antimouse-FITC antibody (Sigma). Cells were then washed with PBS again and incubated with propidium iodide (0.1 mg/mL) and RNAse A (0.5 mg/mL) for 1 h at room temperature in the dark and afterwards analyzed by flow cytometry using a 488 nm single beam laser (FACSCalibur, Becton Dickinson).

CCRF-CEM cells [4] = assay: BrU incorporation analysis (RNA synthesis); type: cell-based, human; design: RNA synthesis: unit not given here
Procedure: as §4
Cells were cultured and treated as above. Before harvesting, pulse-labeling with 1 mM 5-bromouridine (BrU) for 30 min followed. The cells were then fixed in 1% buffered paraformaldehyde with 0.05% of NP-40 in room temperature for 15 min, and then stored in 4°C overnight. Before measurement, they werewashed in PBS with 1% glycin, washed in PBS again, and stained by primary anti-BrDU antibody crossreacting to BrU (Exbio) for 30 min at room temperature in the dark. After another washing step in PBS cells were stained by secondary antimouse-FITC antibody (Sigma). Following the staining, cells were washed with PBS and fixed with 1% PBS buffered paraformaldehyde with 0.05% of NP-40 for 1 hour. Cells were washed by PBS, incubated with propidium iodide (0.1 mg/mL) and RNAse A (0.5 mg/mL) for 1 h at room temperature in the dark, and finally analyzed by flow cytometry using a 488 nm single beam laser (FACS Calibur, Becton Dickinson).

SMILES: C=C(CBr)[C@@H]1CC[C@]2(C(=O)O)CC[C@]3(C)C(CCC4[C@@]5(C)CC[C@H](OC(C)=O)C(C)(C)C5CC[C@]43C)C12 (stereo partly drawn) [Compound 4, 3β-O-Acetyl-30-bromobetulinic acid]
- IC50 (CCRF-CEM): 5.7 µM
- IC50 (CEM-DNR): 15.3 µM
- IC50 (K562): 21.7 µM
- IC50 (K562-TAX): 15.8 µM
- IC50 (A549): 13.2 µM
- IC50 (HCT116): 15.9 µM
- IC50 (HCT116p53-/-): 14.1 µM
- IC50 (U2OS): 21.2 µM
- IC50 (BJ): 31.7 µM
- IC50 (MRC-5): 24.2 µM
- G0/G1 (%) (CCRF-CEM cells [1]; 1 × IC50): 47.3%
- G2/M (%) (CCRF-CEM cells [1]; 1 × IC50): 16.8%
- S (%) (CCRF-CEM cells [1]; 1 × IC50): 35.9%
- Sub G1 (%) (CCRF-CEM cells [1]; 1 × IC50): 9.4%
- G0/G1 (%) (CCRF-CEM cells [1]; 5 × IC50): 33.7%
- G2/M (%) (CCRF-CEM cells [1]; 5 × IC50): 23.2%
- S (%) (CCRF-CEM cells [1]; 5 × IC50): 43.0%
- Sub G1 (%) (CCRF-CEM cells [1]; 5 × IC50): 39.7%
- pH3Ser10 (%) (CCRF-CEM cells [2]; 1 × IC50): 1.34%
- pH3Ser10 (%) (CCRF-CEM cells [2]; 5 × IC50): 2.35%
- effect on DNA synthesis (in words) (CCRF-CEM cells [3]): inhibiting
- DNA synthesis (CCRF-CEM cells [3]; 1 × IC50, BrDU incorporation): 38.6
- DNA synthesis (CCRF-CEM cells [3]; 5 × IC50, BrDU incorporation): 5.80
- effect on RNA synthesis (in words) (CCRF-CEM cells [4]): inhibiting
- RNA synthesis (CCRF-CEM cells [4]; 1 × IC50, BrU incorporation): 56.3
- RNA synthesis (CCRF-CEM cells [4]; 5 × IC50, BrU incorporation): 24.8

SMILES: C=C(CN=[N+]=[N-])[C@@H]1CC[C@]2(C(=O)O)CC[C@]3(C)C(CCC4[C@@]5(C)CC[C@H](OC(C)=O)C(C)(C)C5CC[C@]43C)C12 (stereo partly drawn) [Compound 6, 3β-O-Acetyl-30-azidobetulinic acid]
- IC50 (CCRF-CEM): 7.4 µM
- IC50 (CEM-DNR): 19.2 µM
- IC50 (K562): 12.3 µM
- IC50 (K562-TAX): 15.5 µM
- IC50 (A549): 17.6 µM
- IC50 (HCT116): 18.6 µM
- IC50 (HCT116p53-/-): 19.7 µM
- IC50 (U2OS): 20.9 µM
- IC50 (BJ): 26.7 µM
- IC50 (MRC-5): 20 µM
- G0/G1 (%) (CCRF-CEM cells [1]; 1 × IC50): 49.3%
- G2/M (%) (CCRF-CEM cells [1]; 1 × IC50): 20.3%
- S (%) (CCRF-CEM cells [1]; 1 × IC50): 30.4%
- Sub G1 (%) (CCRF-CEM cells [1]; 1 × IC50): 10.7%
- G0/G1 (%) (CCRF-CEM cells [1]; 5 × IC50): 41.4%
- G2/M (%) (CCRF-CEM cells [1]; 5 × IC50): 23.8%
- S (%) (CCRF-CEM cells [1]; 5 × IC50): 34.8%
- Sub G1 (%) (CCRF-CEM cells [1]; 5 × IC50): 70.0%
- pH3Ser10 (%) (CCRF-CEM cells [2]; 1 × IC50): 1.80%
- pH3Ser10 (%) (CCRF-CEM cells [2]; 5 × IC50): 2.68%
- effect on DNA synthesis (in words) (CCRF-CEM cells [3]): inhibiting
- DNA synthesis (CCRF-CEM cells [3]; 1 × IC50, BrDU incorporation): 33.0
- DNA synthesis (CCRF-CEM cells [3]; 5 × IC50, BrDU incorporation): 1.00
- effect on RNA synthesis (in words) (CCRF-CEM cells [4]): inhibiting
- RNA synthesis (CCRF-CEM cells [4]; 1 × IC50, BrU incorporation): 14.1
- RNA synthesis (CCRF-CEM cells [4]; 5 × IC50, BrU incorporation): 1.70

SMILES: C=C(Cn1cc(-c2ccccc2C=O)nn1)[C@@H]1CC[C@]2(C(=O)O)CC[C@]3(C)C(CCC4[C@@]5(C)CC[C@H](OC(C)=O)C(C)(C)C5CC[C@]43C)C12 (stereo partly shown) [Compound 9b]
- IC50 (CCRF-CEM): 3.3 µM
- IC50 (CEM-DNR): 4 µM
- IC50 (K562): 3.6 µM
- IC50 (K562-TAX): 3.9 µM
- IC50 (A549): 14.8 µM
- IC50 (HCT116): 6.4 µM
- IC50 (HCT116p53-/-): 9.5 µM
- IC50 (U2OS): 12.8 µM
- IC50 (BJ): 31.3 µM
- IC50 (MRC-5): 28.9 µM
- inhibition of the cell cycle in G0/G1 (in words) (CCRF-CEM cells [1]): highest accumulation
- G0/G1 (%) (CCRF-CEM cells [1]; 1 × IC50): 58.6%
- G2/M (%) (CCRF-CEM cells [1]; 1 × IC50): 19.5%
- S (%) (CCRF-CEM cells [1]; 1 × IC50): 21.9%
- Sub G1 (%) (CCRF-CEM cells [1]; 1 × IC50): 10.8%
- G0/G1 (%) (CCRF-CEM cells [1]; 5 × IC50): 35.7%
- G2/M (%) (CCRF-CEM cells [1]; 5 × IC50): 18.1%
- S (%) (CCRF-CEM cells [1]; 5 × IC50): 46.2%
- Sub G1 (%) (CCRF-CEM cells [1]; 5 × IC50): 51.9%
- pH3Ser10 (%) (CCRF-CEM cells [2]; 1 × IC50): 1.19%
- pH3Ser10 (%) (CCRF-CEM cells [2]; 5 × IC50): 0.37%
- effect on DNA synthesis (in words) (CCRF-CEM cells [3]): inhibiting
- DNA synthesis (CCRF-CEM cells [3]; 1 × IC50, BrDU incorporation): 22.6
- DNA synthesis (CCRF-CEM cells [3]; 5 × IC50, BrDU incorporation): 0.55
- effect on RNA synthesis (in words) (CCRF-CEM cells [4]): inhibiting
- RNA synthesis (CCRF-CEM cells [4]; 1 × IC50, BrU incorporation): 15.8
- RNA synthesis (CCRF-CEM cells [4]; 5 × IC50, BrU incorporation): 0.08
